Target: T1, human OX2R (Homo sapiens, UniProt O43614)
T1 construct: expressed in transfected cells; host or cells: Chinese hamster ovary (CHO) cells, kept under G418 selection
T1 sequence (O43614 1-444): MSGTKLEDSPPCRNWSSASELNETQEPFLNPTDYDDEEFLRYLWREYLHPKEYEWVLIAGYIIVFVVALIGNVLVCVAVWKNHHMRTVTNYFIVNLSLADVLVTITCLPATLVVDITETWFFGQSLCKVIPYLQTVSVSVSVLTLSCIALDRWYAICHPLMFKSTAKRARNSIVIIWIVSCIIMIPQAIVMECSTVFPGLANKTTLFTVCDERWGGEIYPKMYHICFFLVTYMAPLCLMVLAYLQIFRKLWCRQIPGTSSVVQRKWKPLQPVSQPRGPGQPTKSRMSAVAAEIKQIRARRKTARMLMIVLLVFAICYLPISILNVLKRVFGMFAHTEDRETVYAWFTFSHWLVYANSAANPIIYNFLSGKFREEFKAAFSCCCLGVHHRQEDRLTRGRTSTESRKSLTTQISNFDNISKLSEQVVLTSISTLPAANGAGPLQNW
Experiment: IPOne (IP-One) orexin receptor agonist assay in CHO cells expressing human OX2R
Type: cell-based
Settings: for EC50: CHO cells expressing human OX2R, IP-One detection, 2 hours incubation, four parameter logistic fit, read-out: OX2R Potency, EC50; for % max agonist effect (Emax): human OX2R, percentage of sample raw value/mean max effect (reference compound at 1 uM with 100% activity)

| EC50 [nM] | % max agonist effect (Emax) [%] | Compound |
| --- | --- | --- |
| 4050 | 87.6 | CS(=O)(=O)N[C@H]1CCN(c2ccncc2)[C@H]1CO[C@H]1CC[C@@H](c2ccccc2)CC1 [Example 57, N-((2R,3S)-2-((((CIS)-4-phenylcyclohexyl)oxy)methyl)-1-(pyridin-4-yl)pyrrolidin-3-yl)methanesulfonamide] |
| 46.3 | 101.1 | COc1cncc(N2CC[C@H](NS(C)(=O)=O)[C@@H]2CO[C@H]2CC[C@@H](c3ccccc3)CC2)c1 [Example 64, N-((2R,3S)-1-(5-methoxypyridin-3-yl)-2-((((CIS)-4-phenylcyclohexyl)oxy)methyl)pyrrolidin-3-yl)methanesulfonamide] |
| 4650 | 88.2 | Cn1cc(N2CC[C@H](NS(C)(=O)=O)[C@@H]2CO[C@H]2CC[C@@H](c3ccccc3)CC2)ccc1=O [Example 112, N-((2R,3S)-1-(1-methyl-6-oxo-1,6-dihydropyridin-3-yl)-2-((((CIS)-4-phenylcyclohexyl)oxy)methyl)pyrrolidin-3-yl)methanesulfonamide] |
| 52.4 | 102.3 | Cn1ccc(=O)cc1N1CC[C@H](NS(C)(=O)=O)[C@@H]1CO[C@H]1CC[C@@H](c2ccccc2)CC1 [Example 87, N-((2R,3S)-1-(1-methyl-4-oxo-1,4-dihydropyridin-2-yl)-2-((((CIS)-4-phenylcyclohexyl)oxy)methyl)pyrrolidin-3-yl)methanesulfonamide] |
| 2790 | 54.1 | CS(=O)(=O)N[C@H]1CCN(c2ccc(OCCF)cc2)[C@H]1CO[C@H]1CC[C@@H](c2ccccc2)CC1 [Example 36, N-((2R,3S)-1-(4-(2-fluoroethoxy)phenyl)-2-((((CIS)-4-phenylcyclohexyl)oxy)methyl)pyrrolidin-3-yl)methanesulfonamide] |
| 10.8 | 100.5 | CS(=O)(=O)N[C@H]1CCN(c2nccc(O)c2Cl)[C@H]1CO[C@H]1CC[C@@H](c2ccccc2)CC1 [Example 120, N-((2R,3S)-1-(3-chloro-4-hydroxypyridin-2-yl)-2-((((CIS)-4-phenylcyclohexyl)oxy)methyl)pyrrolidin-3-yl)methanesulfonamide] |
| 14.2 | 100.3 | COc1ccncc1N1CC[C@H](NS(C)(=O)=O)[C@@H]1CO[C@H]1CC[C@@H](c2ccccc2)CC1 [Example 51, N-((2R,3S)-1-(4-methoxypyridin-3-yl)-2-((((CIS)-4-phenylcyclohexyl)oxy)methyl)pyrrolidin-3-yl)methanesulfonamide] |
| 1860 | 94.4 | CS(=O)(=O)N[C@H]1CCN(c2cccc(O)c2)[C@H]1CO[C@H]1CC[C@@H](c2ccccc2)CC1 [Example 155, N-((2R,3S)-1-(3-hydroxyphenyl)-2-((((CIS)-4-phenylcyclohexyl)oxy)methyl)pyrrolidin-3-yl)methanesulfonamide] |
| 38.3 | 101.3 | CC(C)(O)c1ccc(N2CC[C@H](NS(C)(=O)=O)[C@@H]2CO[C@H]2CC[C@@H](c3ccccc3)CC2)cn1 [Example 61, N-((2R,3S)-1-(6-(2-hydroxypropan-2-yl)pyridin-3-yl)-2-((((CIS)-4-phenylcyclohexyl)oxy)methyl)pyrrolidin-3-yl)methanesulfonamide] |

Continued, compound first:

| Compound | EC50 [nM] | % max agonist effect (Emax) [%] |
| --- | --- | --- |
| Cc1c(N2CC[C@H](NS(C)(=O)=O)[C@@H]2CO[C@H]2CC[C@@H](c3ccccc3)CC2)cnn1C [Example 30, N-((2R,3S)-1-(1,5-dimethyl-1H-pyrazol-4-yl)-2-((((CIS)-4-phenylcyclohexyl)oxy)methyl)pyrrolidin-3-yl)methanesulfonamide] | 149 | 100.0 |
| COC[C@@H]1C[C@H](NS(=O)(=O)N(C)C)[C@H](CO[C@H]2CC[C@@H](c3cccc(F)c3)CC2)N1c1cc(O)c(F)cn1 [Example 93, N′-((2R,3S,5S)-1-(5-fluoro-4-hydroxypyridin-2-yl)-2-((((CIS)-4-(3-fluorophenyl)cyclohexyl)oxy)methyl)-5-(methoxymethyl)pyrrolidin-3-yl)-N,N-dimethyl-sulfamide] | 0.45 | 101.9 |
| CS(=O)(=O)N[C@H]1CCN(c2ccc(OC(F)F)cn2)[C@H]1CO[C@H]1CC[C@@H](c2ccccc2)CC1 [Example 35, N-((2R,3S)-1-(5-(difluoromethoxy)pyridin-2-yl)-2-((((CIS)-4-phenylcyclohexyl)oxy)methyl)pyrrolidin-3-yl)methanesulfonamide] | 176 | 104.3 |
| CS(=O)(=O)N[C@H]1CCN(c2cnccc2OCc2ccccc2)[C@H]1CO[C@H]1CC[C@@H](c2ccccc2)CC1 [Example 123, N-((2R,3S)-1-(4-(benzyloxy)pyridin-3-yl)-2-((((CIS)-4-phenylcyclohexyl)oxy)methyl)pyrrolidin-3-yl)methanesulfonamide] | 755 | 97.6 |
| CS(=O)(=O)N[C@H]1CCN(c2cc(OC(F)F)c(F)cn2)[C@H]1CO[C@H]1CC[C@@H](c2ccccc2)CC1 [Example 140, N-((2R,3S)-1-(4-(difluoromethoxy)-5-fluoropyridin-2-yl)-2-((((CIS)-4-phenylcyclohexyl)oxy)methyl)pyrrolidin-3-yl)methanesulfonamide] | 299 | 98.8 |
| CS(=O)(=O)N[C@H]1CCN(c2cnc(C(F)(F)F)nc2)[C@H]1CO[C@H]1CC[C@@H](c2ccccc2)CC1 [Example 41] | 172 | 100.2 |
| Cc1cnc(N2CC[C@H](NS(C)(=O)=O)[C@@H]2CO[C@H]2CC[C@@H](c3ccccc3)CC2)cn1 [Example 65, N-((2R,3S)-1-(5-methylpyrazin-2-yl)-2-((((CIS)-4-phenylcyclohexyl)oxy)methyl)pyrrolidin-3-yl)methanesulfonamide] | 123 | 100.9 |
| CS(=O)(=O)N[C@H]1CCN(c2ncccc2C(F)(F)F)[C@H]1CO[C@H]1CC[C@@H](c2ccccc2)CC1 [Example 126, N-((2R,3S)-2-((((CIS)-4-phenylcyclohexyl)oxy)methyl)-1-(3-(trifluoromethyl)pyridin-2-yl)pyrrolidin-3-yl)methanesulfonamide] | 370 | 100 |
| COc1c(F)cnc(N2CC[C@H](NS(C)(=O)=O)[C@@H]2CO[C@H]2CC[C@@H](c3cccc(F)c3)CC2)c1F [Example 100, N-((2R,3S)-1-(3,5-difluoro-4-methoxypyridin-2-yl)-2-((((CIS)-4-(3-fluorophenyl)cyclohexyl)oxy)methyl)pyrrolidin-3-yl)methanesulfonamide] | 716 | 99.6 |
| CS(=O)(=O)N[C@H]1CCN(c2cc(C(F)F)cc(C(F)F)n2)[C@H]1CO[C@H]1CC[C@@H](c2ccccc2)CC1 [Example 142, N-((2R,3S)-1-(4,6-bis(difluoromethyl)pyridin-2-yl)-2-((((CIS)-4-phenylcyclohexyl)oxy)methyl)pyrrolidin-3-yl)methanesulfonamide] | > 10000 | 15.8 |
| Cc1nnc(N2CC[C@H](NS(C)(=O)=O)[C@@H]2CO[C@H]2CC[C@@H](c3ccccc3)CC2)o1 [Example 37, N-((2R,3 S)-1-(5-methyl-1,3,4-oxadiazol-2-yl)-2-((((CIS)-4-phenylcyclohexyl)oxy)methyl)pyrrolidin-3-yl)methanesulfonamide] | 670 | 101.5 |
